# Test results published in US20160159814A1, “GLYCINE TRANSPORTER INHIBITOR” (TAISHO PHARMACEUTICAL CO., LTD., priority 2013, published 2016).
# Molecular target: T1, human type 1 glycine transporter (GlyT1) (Homo sapiens, UniProt P48067)
# T1 construct: T98G cells (glioma cells) expressing human type 1 glycine transporter (GlyT1) were used; endogenous in cells; host or cells: T98G cells (human glioma cells)
# T1 sequence (P48067 1-706): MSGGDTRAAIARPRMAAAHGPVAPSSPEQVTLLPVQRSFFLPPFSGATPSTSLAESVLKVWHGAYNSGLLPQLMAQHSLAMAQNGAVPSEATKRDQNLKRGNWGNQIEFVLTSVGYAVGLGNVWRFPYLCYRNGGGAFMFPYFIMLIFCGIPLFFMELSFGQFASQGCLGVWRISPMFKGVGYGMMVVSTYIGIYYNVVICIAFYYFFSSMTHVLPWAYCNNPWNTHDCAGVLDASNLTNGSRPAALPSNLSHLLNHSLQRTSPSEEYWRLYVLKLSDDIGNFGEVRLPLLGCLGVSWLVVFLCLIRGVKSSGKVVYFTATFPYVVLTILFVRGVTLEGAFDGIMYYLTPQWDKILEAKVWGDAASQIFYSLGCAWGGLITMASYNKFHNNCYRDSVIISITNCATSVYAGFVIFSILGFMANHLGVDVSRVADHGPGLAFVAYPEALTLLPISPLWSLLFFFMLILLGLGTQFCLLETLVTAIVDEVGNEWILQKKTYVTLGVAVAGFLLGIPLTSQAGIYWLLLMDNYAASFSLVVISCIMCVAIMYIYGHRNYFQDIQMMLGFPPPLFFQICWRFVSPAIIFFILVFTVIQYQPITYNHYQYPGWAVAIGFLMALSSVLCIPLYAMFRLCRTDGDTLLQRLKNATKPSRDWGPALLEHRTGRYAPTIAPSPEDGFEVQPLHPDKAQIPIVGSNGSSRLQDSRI
# Assay: Glycine uptake inhibition experiment ([3H] glycine uptake in T98G cells expressing GlyT1)
# Assay type: cell-based
# Details: not given
# In short: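 T98G glioma cells expressing human GlyT1 were pretreated 10 min with compound in HEPES buffer pH 7.4 (0.2% BSA), then incubated with compound plus 250 nM final [3H]glycine for 15 min at room temperature. Intracellular radioactivity was counted after NaOH lysis; 10 μM ALX5407 defined non-specific uptake. IC50 came from 10^−9–10^−5 M curves.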
row,SMILES,IC50 [nM]
1,"C[C@H](O)c1cccc2c1C(F)(F)C(=O)N2Cc1ccc(F)c(Cl)n1 [Compound 237, 1-[(6-chloro-5-fluoropyridin-2-yl)methyl]-3,3-difluoro-4-[(1S)-1-hydroxyethyl]-1,3-dihydro-2H-indol-2-one]",2.9

# Same assay, conditions: glycine uptake inhibition
row,SMILES,IC50 [nM]
1,"C[C@H](O)c1cccc2c1C(F)(F)C(=O)N2Cc1ccc(C(F)(F)F)nc1 [Compound 118, 3,3-difluoro-4-[(1S)-1-hydroxyethyl]-1-{[6-(trifluoromethyl)pyridin-3-yl]methyl}-1,3-dihydro-2H-indol-2-one]",27
2,"C[C@H](O)c1cccc2c1C(F)(F)C(=O)N2Cc1nc2cc(F)ccc2c(=O)n1C [Compound 132, 2-({3,3-difluoro-4-[(1S)-1-hydroxyethyl]-2-oxo-2,3-dihydro-1H-indol-1-yl}methyl)-7-fluoro-3-methylquinazolin-4(3H)-one]",18
3,C[C@H](O)c1cccc2c1C(F)(F)C(=O)N2Cc1cncc(-n2cncn2)c1 [Compound 129],6900
4,"CC(C)(O)c1cccc2c1C(F)(F)C(=O)N2Cc1cccc(Cl)n1 [Compound 12, 1-[(6-chloropyridin-2-yl)methyl]-3,3-difluoro-4-(2-hydroxypropan-2-yl)-1,3-dihydro-2H-indol-2-one]",700
5,"O=C1N(Cc2cncc(Cl)c2)c2ccc(F)c(C(O)C(F)(F)F)c2C1(F)F (single isomer, unassigned) [Compound 50, 1-[(5-chloropyridin-3-yl)methyl]-3,3,5-trifluoro-4-(2,2,2-trifluoro-1-hydroxyethyl)-1,3-dihydro-2H-indol-2-one]",170
